How the values were obtained:
fungi = test: toxicity of ferulic acid, vanillic acid and vanillin to the fungi; assay type: cell-based, filamentous fungi; conditions: for concentration toxic to the fungi: concentration in the culture
[1] = binding of vanillin by nonionic resin XAD2; assay type: physicochemical
[2] = binding of produced vanillin to XAD2 resin in Phanerochaete chrysosporium culture (experiment 2); assay type: physicochemical; conditions: experiment 2, XAD2 10% (weight/volume), 6 days of growth
Protocol: The strain used is the Phanerochaete chrysosporium strain MIC 247, deposited on 31st Aug. 1994 with the Collection Nationale de Culture de Microorganismes under the number I-1471. This strain was cultured as described in Example 1 above.
Vanillic acid was added sequentially, namely: 0.3 g/l at the end of 3 days of culture, then 0.3 g/l every day.
For experiment 2, sterile resin XAD2 (Amberlite) is added in the proportion of 10% (weight/volume) after 3 days+6 h of culture of the fungus, that is to say 6 h after adding vanillic acid (at a concentration of 300 mg/l).
Vanillic acid and its metabolites are assayed as described in Example 1 above.

**Q.** For `COc1cc(/C=C/C(=O)O)ccc1O` [ferulic acid], which “concentration toxic to the fungi” value (fungi) is on record?
**A.** The value was “above 2 g/l”.

**Q.** For `COc1cc(C(=O)O)ccc1O` [vanillic acid], which “concentration toxic to the fungi” value (fungi) is on record?
**A.** Its value is “above 2 g/l”.

**Q.** For `COc1cc(C=O)ccc1O` [vanillin], which “vanillin bound by the resin” value [1] is on record?
**A.** Its value is 98%.

**Q.** What about the “concentration toxic to the fungi” value (fungi) of the same molecule?
**A.** Its value is “above 2 g/l”.

**Q.** And the “toxicity for the metabolism of the fungus (in words)” value (fungi; strain that accumulates vanillin (Nidulariales))?
**A.** Its value is “very quickly becomes toxic for the metabolism of the fungus”.

**Q.** And the “vanillin produced that has been bound to the resin” value [2]?
**A.** Its value is 94%.

Reference: patent publication US5866380A, “Methods for bioconversion of ferulic acid to vanillic acid or vanillin and for the bioconversion of vanillic acid to vanillin using filamentous fungi” (Institut National De La Recherche Agronomique-I.N.R.A., priority 1994, dated 1999)
